Experimental data from PubChem BioAssay (NCI).
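Test compounds were applied to cells in 96-well plates for 48 hours at 5 doses. The concentration for 50% growth inhibition is given as GI50. TGI: total growth inhibition.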

Legend:
Assay in all cases: NCI anticancer screen, dose series, 48 h
[1] = tested on: OVCAR-4 ovarian
[2] = tested on: NCI-H23 lung
[3] = tested on: KM12 colon
[4] = tested on: NCI-H460 lung
[5] = tested on: MDA-MB-231 breast
[6] = tested on: MDA-MB-435
[7] = tested on: OVCAR-5 ovarian
[8] = tested on: SF-295 CNS
[9] = tested on: SK-OV-3 ovarian
[10] = tested on: LOX IMVI melanoma
[11] = tested on: HCT-15 colon
[12] = tested on: T-47D breast
[13] = tested on: OVCAR-3 ovarian
[14] = tested on: SK-MEL-5 melanoma
[15] = tested on: SN12C renal
[16] = tested on: SW-620 colon
[17] = tested on: BT-549 breast
[18] = tested on: HCC-2998 colon
[19] = tested on: CCRF-CEM leukemia
[20] = tested on: 786-0 renal
[21] = tested on: SK-MEL-28 melanoma
[22] = tested on: TK-10 renal
[23] = tested on: NCI-H226 lung
[24] = tested on: HCT-116 colon
[25] = tested on: SK-MEL-2 melanoma
[26] = tested on: HS 578T breast
[27] = tested on: SF-268 CNS
[28] = tested on: SF-539 CNS
[29] = tested on: MDA-MB-468 breast
[30] = tested on: MOLT-4 leukemia
[31] = tested on: UO-31 renal
[32] = tested on: MCF7 breast
[33] = tested on: NCI/ADR-RES ovarian
[34] = tested on: COLO 205 colon
[35] = tested on: RPMI-8226 leukemia
[36] = tested on: MALME-3M melanoma
[37] = tested on: IGROV1 ovarian
[38] = tested on: A498 renal
[39] = tested on: HOP-92 NSCLC
[40] = tested on: RXF 393 renal
[41] = tested on: NCI-H522 lung
[42] = tested on: SNB-19 CNS
[43] = tested on: ACHN renal
[44] = tested on: UACC-62 melanoma
[45] = tested on: DU-145 prostate
[46] = tested on: M14 melanoma
[47] = tested on: EKVX NSCLC
[48] = tested on: HL-60(TB) leukemia
[49] = tested on: SNB-75 CNS
[50] = tested on: CAKI-1 renal
[51] = tested on: HT29 colon
[52] = tested on: UACC-257 melanoma
[53] = tested on: K-562 leukemia
[54] = tested on: U251 CNS
[55] = tested on: A549 NSCLC
[56] = tested on: PC-3 prostate
[57] = tested on: HOP-62 NSCLC
[58] = tested on: OVCAR-8 ovarian
[59] = tested on: SR leukemia

## COc1ccc(C(=O)/C=C/c2ccc(OC)c(OCc3ccccc3)c2)cc1OC
[1]
  GI50: 5.2 µM
  TGI: 61.5 µM
[2]
  GI50: 4.39 µM
  TGI: 43.6 µM
[3]
  GI50: 3.93 µM
  TGI: 38.6 µM
[4]
  GI50: 3.67 µM
  TGI: 20.3 µM
[5]
  GI50: 4.11 µM
  TGI: > 100 µM
[6]
  GI50: 3.47 µM
  TGI: > 100 µM
[7]
  GI50: 2.97 µM
  TGI: > 100 µM
[8]
  GI50: 5.43 µM
  TGI: > 100 µM
[9]
  GI50: 8.23 µM
  TGI: > 100 µM
[10]
  GI50: 2.66 µM
  TGI: > 100 µM
[11]
  GI50: 2.69 µM
  TGI: > 100 µM
[12]
  GI50: 2.8 µM
  TGI: 80.6 µM
[13]
  GI50: 2.96 µM
  TGI: 19.6 µM
[14]
  GI50: 11.7 µM
  TGI: 27.5 µM
[15]
  GI50: 2.89 µM
  TGI: > 100 µM
[16]
  GI50: 3.04 µM
  TGI: > 100 µM
[17]
  GI50: 2.55 µM
  TGI: 8.42 µM
[18]
  GI50: 3.39 µM
  TGI: > 100 µM
[19]
  GI50: 3.22 µM
  TGI: > 100 µM
[20]
  GI50: 4.13 µM
  TGI: > 100 µM
[21]
  GI50: 21.4 µM
  TGI: > 100 µM
[22]
  GI50: 4.87 µM
  TGI: > 100 µM
[23]
  GI50: 6.35 µM
  TGI: 95.9 µM
[24]
  GI50: 3.35 µM
  TGI: > 100 µM
[25]
  GI50: 14.4 µM
  TGI: 60.1 µM
[26]
  GI50: 7.71 µM
  TGI: 53.5 µM
[27]
  GI50: 8.91 µM
  TGI: 70.9 µM
[28]
  GI50: 2.04 µM
  TGI: 4.65 µM
[29]
  GI50: 2.94 µM
  TGI: 19.6 µM
[30]
  GI50: 2.7 µM
  TGI: 8.73 µM
[31]
  GI50: 2.89 µM
  TGI: > 100 µM
[32]
  GI50: 2.64 µM
  TGI: > 100 µM
[33]
  GI50: 3 µM
  TGI: > 100 µM
[34]
  GI50: 4.33 µM
  TGI: 38 µM
[35]
  GI50: 2.64 µM
  TGI: > 100 µM
[36]
  GI50: 25.1 µM
  TGI: > 100 µM
[37]
  GI50: 3.42 µM
  TGI: > 100 µM
[38]
  GI50: 17.5 µM
  TGI: 61.4 µM
[39]
  GI50: 4.67 µM
  TGI: > 100 µM
[40]
  GI50: 4.61 µM
  TGI: > 100 µM
[41]
  GI50: 3.18 µM
  TGI: 26 µM
[42]
  GI50: 3.46 µM
  TGI: > 100 µM
[43]
  GI50: 6.86 µM
  TGI: > 100 µM
[44]
  GI50: 3.81 µM
  TGI: 33.9 µM
[45]
  GI50: 3.83 µM
  TGI: > 100 µM
[46]
  GI50: 9.79 µM
  TGI: > 100 µM
[47]
  GI50: 13.4 µM
  TGI: > 100 µM
[48]
  GI50: 5.06 µM
  TGI: 24.8 µM
[49]
  GI50: 1.59 µM
  TGI: 7.21 µM
[50]
  GI50: 9.93 µM
  TGI: > 100 µM
[51]
  GI50: 4 µM
  TGI: > 100 µM
[52]
  GI50: 6.57 µM
  TGI: > 100 µM
[53]
  GI50: 2.86 µM
  TGI: > 100 µM
[54]
  GI50: 3.02 µM
  TGI: > 100 µM
[55]
  GI50: 3.11 µM
  TGI: > 100 µM
[56]
  GI50: 4.99 µM
  TGI: > 100 µM
[57]
  GI50: 3.37 µM
  TGI: 82.6 µM
[58]
  GI50: 3.25 µM
  TGI: > 100 µM
[59]
  GI50: 2.06 µM
  TGI: 8.61 µM
